Source: patent US20170276611A1, “CHALCOGENOPYRYLIUM DYES, COMPOSITIONS COMPRISING SAME, COMPOSITE NANOPARTICLES COMPRISING SAME, AND METHODS OF MAKING AND USING THE SAME” (The Research Foundation for The State University of New York, priority 2014, published 2017)

Test: UV/VIS-near-IR absorption of the dyes
Type: physicochemical
Details: for ε (CH2Cl2): molar extinction coefficient in CH2Cl2
Method: Synthetic Methods. All reactions were performed open to air unless otherwise noted. Concentration in vacuo was performed on a rotary evaporator. NMR spectra were recorded at 300 or 500 MHz for ^1H and at 75.5 MHz for ^13C with residual solvent signal as internal standard. UV/VIS-near-IR spectra were recorded in quartz cuvettes with a 1-cm path length. Melting points were determined with a capillary melting point apparatus and are uncorrected. […] Pyranones 16b-16d are known compounds (J. Heterocycl. Chem. 1999, 36, 707-717). The synthesis of thiopyranone 16a and 4-methylpyrylium salt 15c is shown in Scheme 2. 4-Methylpyrylium salts 15a, 15d, and 15e have been reported previously in the literature (J. Org. Chem. 1982, 47, 5235-5239; Organometallics 1988, 7, 1131-1147; Dyes Pigm. 2000, 45, 1-7).

[1] = Table 2, Example 2 dyes, CH2Cl2

SMILES	λmax (CH2Cl2) (absorption maximum in CH2Cl2) [nm]	ε (CH2Cl2) [M⁻¹ cm⁻¹]	Log (ε) (Table 2, Example 2 dyes)	λmax (CH2Cl2) [1] [nm]
C(=Cc1cc(-c2cccs2)[s+]c(-c2cccs2)c1)C=C1C=C(c2cccs2)SC(c2cccs2)=C1.F[P-](F)(F)(F)(F)F [Dye 13, 4-(3-(2,6-dithiophen-2-yl-4H-thiopyran-4-ylidene)prop-1-enyl)-(2,6-dithiophen-2-yl)thiopyrylium hexafluorophosphate]	813	280000		
C(=C1C=C(c2cccs2)[Se]C(c2cccs2)=C1)c1cc(-c2cccs2)[se+]c(-c2cccs2)c1.F[P-](F)(F)(F)(F)F [Dye 6, 4-((2,6-di(thiophen-2-yl)-4H-selenopyran-4-ylidene)methyl)-2,6-di(thiophen-2-yl)selenopyrylium hexafluorophosphate]	724	130000		
C(=Cc1cc(-c2cccs2)[s+]c(-c2cccs2)c1)C=C1C=C(c2cccs2)SC(c2cccs2)=C1.F[P-](F)(F)(F)(F)F [Dye 3, 4-(3-(2,6-dithiophen-2-yl-4H-thiopyran-4-ylidene)prop-1-enyl)-(2,6-dithiophen-2-yl)thiopyrylium hexafluorophosphate]			5.45	813
ClC1=C(/C=C/c2cc(-c3cccs3)[s+]c(-c3cccs3)c2)CCC/C1=C\C=C1C=C(c2cccs2)SC(c2cccs2)=C1 [Dye 21, 4-((E)-2-((E)-2-chloro-3-(2-(2,6-di(thiophen-2-yl)-4H-thiopyran-4-ylidene)ethylidene)-cyclohex-1-en-1-yl)vinyl)-2,6-di(thiophen-2-yl)thiopyrylium hexafluorophosphate]	1119			
C(=C1C=C(c2ccccc2)[Se]C(c2ccccc2)=C1)c1cc(-c2cccs2)[se+]c(-c2cccs2)c1.F[P-](F)(F)(F)(F)F [Dye 3, 4-((2,6-diphenyl-4H-selenopyran-4-ylidene)methyl)-2,6-di(thiophen-2-yl)selenopyrylium hexafluorophosphate]	699	150000		
C(=C1C=C(c2ccc[se]2)SC(c2ccc[se]2)=C1)c1cc(-c2ccc[se]2)[s+]c(-c2ccc[se]2)c1.F[P-](F)(F)(F)(F)F [Dye 8, 4-((2,6-di(selenophen-2-yl)-4H-thiopyran-4-ylidene)methyl)-2,6-di(selenophen-2-yl)thiopyrylium hexafluorophosphate]	687	110000		
C(=Cc1cc(-c2ccccc2)[se+]c(-c2ccccc2)c1)C=C1C=C(c2ccccc2)SC(c2ccccc2)=C1.F[P-](F)(F)(F)(F)F [Dye 1b, 4-(3-(2,6-diphenyl-4H-thiopyran-4-ylidene)prop-1-enyl)-2,6-diphenylselenopyrylium hexafluorophosphate]			5.30	784
C1=C(c2ccccc2)Sc2ccccc2/C1=C/C=C/C1=CC(c2ccccc2)=[SH]c2ccccc21 [Dye 15, 2-phenyl-4-((E)-3-((E)-2-phenyl-4H-thiochromen-4-ylidene)prop-1-en-1-yl)thiochromenylium hexafluorophosphate]	789	150000		
C(/C=C/C=C/c1cc(-c2ccc[se]2)[se+]c(-c2ccc[se]2)c1)=C1C=C(c2ccc[se]2)[Se]C(c2ccc[se]2)=C1 [Dye 19, 4-((1E,3E)-5-(2,6-di(selenophen-2-yl)-4H-selenopyran-4-ylidene)penta-1,3-dien-1-yl)-2,6-di(selenophen-2-yl)selenopyrylium]	1001			
C(=C1C=C(c2cccs2)SC(c2cccs2)=C1)c1cc(-c2cccs2)[se+]c(-c2cccs2)c1.F[P-](F)(F)(F)(F)F [Dye 5, 4-((2,6-di(thiophen-2-yl)-4H-thiopyran-4-ylidene)methyl)-2,6-di(thiophen-2-yl)selenopyrylium hexafluorophosphate]	698	110000		
ClC1=C(/C=C/c2cc(-c3ccccc3)[s+]c(-c3ccccc3)c2)CCC/C1=C\C=C1C=C(c2ccccc2)SC(c2ccccc2)=C1 [Dye 20, 4-((E)-2-((E)-2-chloro-3-(2-(2,6-diphenyl-4H-thiopyran-4-ylidene)ethylidene)cyclohex-1-en-1-yl)vinyl)-2,6-diphenylthiopyrylium hexafluorophosphate]	1042	100000		
C(=C1C=C(c2ccccc2)[Se]C(c2ccccc2)=C1)c1cc(-c2cccs2)[s+]c(-c2cccs2)c1.F[P-](F)(F)(F)(F)F [Dye 2, 4-((2,6-diphenyl-4H-selenopyran-4-ylidene)methyl)-2,6-di(thiophen-2-yl)thiopyrylium hexafluorophosphate]	676	130000		
C(=C1C=C(c2ccccc2)SC(c2ccccc2)=C1)c1cc(-c2ccc[se]2)[s+]c(-c2ccc[se]2)c1.F[P-](F)(F)(F)(F)F [Dye 7, 4-((2,6-diphenyl-4H-thiopyran-4-ylidene)methyl)-2,6-di(selenophen-2-yl)thiopyrylium hexafluorophosphate]	659	140000		
C(=Cc1cc(-c2ccccc2)[se+]c(-c2ccccc2)c1)C=C1C=C(c2ccccc2)SC(c2ccccc2)=C1.F[P-](F)(F)(F)(F)F [Dye 10, 4-(3-(2,6-diphenyl-4H-thiopyran-4-ylidene)prop-1-enyl)-2,6-diphenylselenopyrylium hexafluorophosphate]	784	200000		
C(=Cc1cc(-c2ccccc2)[se+]c(-c2ccccc2)c1)C=C1C=C(c2cccs2)SC(c2cccs2)=C1.F[P-](F)(F)(F)(F)F [Dye 2a, 4-(3-(2,6-dithiophen-2-yl-4H-thiopyran-4-ylidene)prop-1-enyl)-2,6-diphenylselenopyrylium hexafluorophosphate]			5.40	810
C(/C=C/C=C/c1cc(-c2cccs2)[s+]c(-c2cccs2)c1)=C1C=C(c2cccs2)SC(c2cccs2)=C1 [Dye 18, 4-((1E,3E)-5-(2,6-di(thiophen-2-yl)-4H-thiopyran-4-ylidene)penta-1,3-dien-1-yl)-2,6-di(thiophen-2-yl)thiopyrylium]	943			
C(=Cc1cc(-c2ccccc2)[se+]c(-c2ccccc2)c1)C=C1C=C(c2ccccc2)[Se]C(c2ccccc2)=C1.F[P-](F)(F)(F)(F)F [Dye 9, 4-(3-(2,6-diphenyl-4H-selenopyran-4-ylidene)prop-1-enyl)-2,6-diphenylselenopyrylium hexafluorophosphate]	806	250000		
C1=C(/C=C/C=C2\C=C(c3ccccc3)[Se]c3ccccc32)C=C(c2ccccc2)[SH]=C1c1ccccc1 [Dye 16, 4-(3-(2,6-diphenyl-4H-thiopyran-4-ylidene)prop-1-enyl)-2-phenylselenobenzopyrylium hexafluorophosphate]	748	61000		
C(=C1C=C(c2ccccc2)SC(c2ccccc2)=C1)c1cc(-c2cccs2)[s+]c(-c2cccs2)c1.F[P-](F)(F)(F)(F)F [Dye 1]	653	130000		
C1=C(c2cccs2)[Se]c2ccccc2/C1=C/C1=CC(c2cccs2)=[SeH]c2ccccc21 [Dye 17, 2-(thiophene-2-yl)-4-((2-(thiophen-2-yl)-4H selenobenzopyran-4-ylidene)methyl)selenobenzopyrylium hexafluorophosphate]	786	78000		
C(=Cc1cc(-c2ccccc2)[s+]c(-c2ccccc2)c1)C=C1C=C(c2cccs2)SC(c2cccs2)=C1.F[P-](F)(F)(F)(F)F [Dye 2b, 4-(3-(2,6-dithiophen-2-yl-4H-thiopyran-4-ylidene)prop-1-enyl)-2,6-diphenylthiopyrylium hexafluorophosphate]			5.34	789
C(=C1C=C(c2cccs2)SC(c2cccs2)=C1)c1cc(-c2cccs2)[s+]c(-c2cccs2)c1.F[P-](F)(F)(F)(F)F [Dye 4, 4-((2,6-di(thiophen-2-yl)-4H-thiopyran-4-ylidene)methyl)-2,6-di(thiophen-2-yl)thiopyrylium hexafluorophosphate]	676	120000		
C(=Cc1cc(-c2ccccc2)[se+]c(-c2ccccc2)c1)C=C1C=C(c2cccs2)SC(c2cccs2)=C1.F[P-](F)(F)(F)(F)F [Dye 11, 4-(3-(2,6-dithiophen-2-yl-4H-thiopyran-4-ylidene)prop-1-enyl)-2,6-diphenylselenopyrylium hexafluorophosphate]	810	250000		
C(=Cc1cc(-c2ccccc2)[s+]c(-c2ccccc2)c1)C=C1C=C(c2cccs2)SC(c2cccs2)=C1.F[P-](F)(F)(F)(F)F [Dye 12, 4-(3-(2,6-dithiophen-2-yl-4H-thiopyran-4-ylidene)prop-1-enyl)-2,6-diphenylthiopyrylium hexafluorophosphate]	789	220000		
C(=Cc1cc(-c2ccc[se]2)[s+]c(-c2ccc[se]2)c1)C=C1C=C(c2ccc[se]2)SC(c2ccc[se]2)=C1.F[P-](F)(F)(F)(F)F [Dye 14, 4-(3-(2,6-di(selenophen-2-yl)-4H-thiopyran-4-ylidene)prop-1-en-1-yl)-2,6-di(selenophen-2-yl)thiopyrylium hexafluorophosphate]	826	230000		
